Reference: PubChem BioAssay AID2423 (Broad Institute, 2010)
Inconclusive results are not listed. Active and inactive are the calls of the source. No rule for the calls is given here.

Tested on: C. albicans CaCi-8 + fluconazole, Alamar Blue growth, 48 h
Assay: resistant C. albicans growth inhibition with fluconazole, dose response, CaCi-8 strain, Alamar Blue fluorescence (AID 2423)

Structure (SMILES)	EC50
Cc1onc(-c2c(F)cccc2Cl)c1C(=O)NNC(=O)C1CCN(Cc2ccccc2)CC1	> 15000 nM (inactive)
CCOC(=O)c1sc(Nc2nc3c(OC)cccc3s2)nc1C	1950 nM
COc1ccccc1N=Nc1ccc(O)c2ncccc12	871 nM
O=C(c1ccc2c(c1)OCO2)N1CCC2(CC1)Oc1ccc(F)cc1C(=O)C21CC(c2cccnc2)=NO1 (configuration not stated)	402 nM
CCOC(=O)C1CCN(C(=O)c2ccc3c(=O)n4nc(Nc5cc(C)ccc5C)sc4nc3c2)CC1	400 nM
O=C(COc1ccccc1)NNC(=S)NC(=O)c1ccc(Cl)cc1Cl	4840 nM
Cc1ccc(S(=O)(=O)NNC(=O)c2ccc(NC(=O)C3CC3)cc2)cc1	> 15000 nM (inactive)
CCC(C)OC(=O)C[N+](C)(C)CCOC1CC2CCC1(C)C2(C)C (configuration not stated)	6590 nM
Cc1ccc2nc(/C(C#N)=C\c3ccc(OC(=O)c4cccs4)cc3)[nH]c2c1	528 nM
CCOC(=O)c1c(NC(=O)CN2CCN(C(=O)c3ccco3)CC2)sc2c1CCCC2	> 15000 nM (inactive)
Cc1cc(Sc2ncnc(N)c2[N+](=O)[O-])ncn1	659 nM
CC(C)C(=O)NC(c1cccs1)c1cc([N+](=O)[O-])c2cccnc2c1O (configuration not stated)	778 nM
CNC(=S)N1N=C(c2ccccc2)CC1c1ccccc1Cl (configuration not stated)	> 16000 nM (inactive)
CCOC(=O)Cc1csc(NC(=O)CSc2nnc(-c3ccc(NS(=O)(=O)CC)cc3)o2)n1	150 nM
CON/C=C(\C=Nc1ccc(Cl)cc1Cl)c1ncc(C(F)(F)F)cc1Cl	> 16000 nM (inactive)
COc1cc(/C=C/C(=O)Nc2cccnc2)cc(OC)c1OC	> 16000 nM (inactive)
COc1ccccc1C(=O)NNC(=S)NC(=O)c1cc(OC)c(OC)c(OC)c1	9620 nM
Cc1ccc(Nc2cc(C)nn2-c2nc(C)cc(=O)[nH]2)cc1	< 120 nM
COC(=O)C1CCN(Cc2c(C(=O)N3C[C@@H](C)O[C@@H](C)C3)nc3ccc(Cl)cn23)CC1	> 15000 nM (inactive)
Cc1cccc(/C=C/C(=O)c2cc(Br)ccc(=O)c2O)c1	987 nM
O=C(COc1ccc(Cl)cc1Cl)N1CCCN(C(=O)COc2ccc(Cl)cc2Cl)CC1	1480 nM
O=C(CNS(=O)(=O)c1ccc(Br)s1)NCC1COc2ccccc2O1 (configuration not stated)	> 15000 nM (inactive)

Structure (SMILES)	EC50
C=CCNC(=S)Nc1sc2c(c1C(=O)OCC)CC(C)(CC)OC2 (configuration not stated)	1380 nM
Cc1ccccc1-c1ccnc2[nH]n(-c3ccccc3)c(=O)c12	14500 nM
FC(F)(F)c1ccccc1NC(=S)NN=C1CCCCCC1	4950 nM
COc1cccc(C2CC(c3ccc(NS(C)(=O)=O)cc3)=NN2C(=O)c2ccccc2)c1OC (configuration not stated)	3730 nM
CC(C)(C)C1CCC(OC(=O)C[N+]2(C)CCCCC2)CC1 (configuration not stated)	11300 nM
Cc1nn(-c2ccccc2)c(N)c1N=Nc1ccc(Cl)cc1	7760 nM
Oc1c(Br)cc(Br)cc1CNc1cccc2cccnc12	> 15000 nM (inactive)
O=C(NC(=S)Nn1cnc2c(cnn2-c2ccccc2)c1=O)c1ccc(Cl)cc1	4150 nM
COc1cc2c(cc1NC(=O)c1ccco1)CCCC2	1060 nM
CCn1c(COc2ccc(=O)n(-c3ccccc3)n2)nnc1SCc1cccc(OC)c1	> 16000 nM (inactive)
CCOC(=O)c1cc([N+](=O)[O-])c([N+](=O)[O-])cc1NC(C)=O	692 nM
Cc1cc2oc3ccc(NCCCn4ccnc4)cc3c(=O)c2cc1C	1990 nM
CCC(C)(C)c1ccc(OCCCC[n+]2cccc(C)c2C)c(C(C)(C)CC)c1	> 16000 nM (inactive)
COc1ccc(NC(=O)c2ccc([N+](=O)[O-])o2)cc1	1340 nM
O=C(NNC(=S)NC(=O)C12CC3CC(CC(C3)C1)C2)c1ccncc1	4640 nM
CCN(CC)c1ccc(/C=N/NC(=O)c2ccc3nc[nH]c3c2)c(O)c1	1160 nM
Cc1ccc(S(=O)(=O)Nc2ccc(O)c3ncccc23)cc1	3310 nM
C=CC[C@@H]1C=C(C)C[C@H](C)C[C@H](OC)[C@H]2O[C@@](O)(C(=O)C(=O)N3CCCC[C@H]3C(=O)O[C@H](/C(C)=C/[C@@H]3CC[C@@H](O)[C@H](OC)C3)[C@H](C)[C@@H](O)CC1=O)[C@H](C)C[C@@H]2OC	< 120 nM
CCn1c(NN=O)nc2ccccc21	7380 nM
N#CC1CC(c2ccccc2)=NN1c1ccccc1[N+](=O)[O-] (configuration not stated)	404 nM
CCCCC(=O)NC(c1ccccc1)c1ccc2cccnc2c1O (configuration not stated)	752 nM
Nc1nonc1-n1nnc(C(=O)N/N=C/c2cc(Br)ccc2O)c1CNc1ccccc1	634 nM

Structure (SMILES)	EC50
CN(C)CCCNc1cc(C(C)(C)C)nc2c(-c3ccc(Cl)cc3)cnn12	5200 nM
Cc1[nH]n(-c2cccc3ccccc23)c(=O)c1/C=N/NC(=O)c1cccc([N+](=O)[O-])c1	3270 nM
CCNc1nc(N)nc(-c2cc(Cl)ccc2O)n1	1900 nM
CCn1c(=O)c(C(=O)Nc2ncccc2C)c(O)c2ccccc21	3360 nM
N#C/C(=C(/O)c1ccco1)c1nc2ccccc2[nH]1	676 nM
CC(=O)Nc1cccc(NC(=O)Nc2cccc(F)c2)c1	> 15000 nM (inactive)
O=C(NNC(=S)NC(=O)c1ccccc1[N+](=O)[O-])c1ccc(Cl)cc1Cl	1870 nM
O=C(NC(Nc1nc2ccc([N+](=O)[O-])cc2s1)(C(F)(F)F)C(F)(F)F)c1ccccc1Cl	1040 nM
O=C(Nc1cccc2ccccc12)c1ccc([N+](=O)[O-])o1	726 nM
O=C(/C=C/c1ccc(F)cc1)N1CCN(c2ccccn2)CC1	800 nM
O=[N+]([O-])c1ccc(N/N=C/c2ccc(O)c(O)c2O)c(S(=O)(=O)N2CCOCC2)c1	8260 nM
O=[N+]([O-])c1ccc(S(=O)(=O)Nc2nc3ccccc3nc2Nc2ccccc2)cc1	1440 nM
CCOC(=O)C1CCN(CCC(=O)Nc2ccc(F)cc2)CC1	> 15000 nM (inactive)
CN1C(=O)/C(=C/c2cn(CC(=O)N3CCCCC3)c3ccccc23)NC1=S	> 15000 nM (inactive)
CCSc1nnc(-c2ccc(C)cc2)c2ccccc12	193 nM
CCN1/C(=C/c2sc(-c3ccccc3C)c[n+]2C)Sc2ccccc21	289 nM
Cc1ccc(NC2=CC(=O)C(=O)c3ccccc32)cc1	451 nM
COc1ccc(/C=C/c2cc(-c3ccc(C)cc3)o[n+]2C)cc1	1650 nM
COc1ccc(-n2c(-c3cccc(C)c3[N+](=O)[O-])n[nH]c2=S)cc1	316 nM
O=C(NCc1cccnc1)c1ccc(-c2cccc(Cl)c2Cl)o1	1760 nM
CCC(=O)NC(c1ccc(C)cc1)c1cc([N+](=O)[O-])c2cccnc2c1O (configuration not stated)	513 nM
Cc1nc2sc(C(c3cccc(F)c3)N3CCCC(C)C3)c(O)n2n1 (configuration not stated)	798 nM

Structure (SMILES)	EC50
C=CCN(CC=C)Cc1c(O)ccc2c(=O)c(-c3ccccc3)coc12	< 120 nM
CCOc1ccccc1C(=O)N/N=C/c1ccoc1	2180 nM
Cc1ncc(CO)c(/C=N/NC(=S)Nc2ccc(Cl)c(Cl)c2)c1O	1880 nM
C/C(=N\NC(=O)C1CCCC1)c1ccc(Cl)c(Cl)c1	> 15000 nM (inactive)
Cc1ccc(-n2c(O)c(C=Nc3ccccc3-c3n[nH]c(=S)[nH]c3=O)c3ccccc3c2=O)cc1C	496 nM
COc1cccc(C(NC(C)=O)c2ccc3cccnc3c2O)c1 (configuration not stated)	1730 nM
Cc1ccc(-n2c(C)cc(/C([O-])=C(/C(=S)Nc3ccc(F)c(Cl)c3)[n+]3ccccc3)c2C)cc1	> 16000 nM (inactive)
COc1ccc(/C=C/C(=O)N(c2ccccn2)C2CCCCC2)cc1OC	7990 nM
CCOc1ccc(NC(=O)c2cn(-c3ccc(OCC)cc3)c(=O)c3cc(OC)c(OC)cc23)cc1	485 nM
COc1ccccc1N1CCN(Cc2cc(Br)c(O)c3ncccc23)CC1	4490 nM
CCOc1ccc(-n2c(C)cc(C(=O)CCl)c2C)cc1	5790 nM
c1ccc(CN2CCc3nc4ccccc4cc3C2)cc1	> 16000 nM (inactive)
Cc1cccc(N2CCc3c2nc2ccc(Br)cc2c3N)c1	1610 nM
COc1cc([N+](=O)[O-])cc(/C=N/NC(=O)c2ccc(NC(=O)c3ccc(C)cc3)cc2)c1O	2340 nM
CC(C)CCNCC(=O)NC(c1ccccc1)c1ccccc1	> 16000 nM (inactive)
O=C1c2ccccc2NC(c2ccc(-c3cccc(Cl)c3)o2)N1O (configuration not stated)	2000 nM
CCOc1ccc(/C=C/C2=CC(C)(C)NC(=S)N2)cc1	1160 nM
N#CC1=C(N)Oc2c(ccc3cccnc23)C1c1cccnc1 (configuration not stated)	8920 nM
Cc1ccc(NC(=O)c2ccccc2NS(=O)(=O)c2ccc(Cl)s2)cc1	1160 nM
C/C(CC(C)(C)C1CCCCC1)=N\NC(N)=S	> 16000 nM (inactive)
O=C(c1ccc(C(=O)N2CCCc3ccccc32)s1)N1CCCc2ccccc21	2990 nM
Cc1cc2c(cc(C(=O)OCC(=O)NCc3ccco3)n2C)s1	6460 nM

Structure (SMILES)	EC50
COc1cc(SC)ccc1C(=O)OCC(=O)NC1CC1	> 15000 nM (inactive)
C=C1C(=O)O[C@@H]2C[C@@H](C)[C@@H]3C4OC4C(=O)[C@@]3(C)[C@@H](O)[C@H]12 (some centres not stated)	219 nM
CCN(CC)c1ccc(/C=N/NC(=O)c2cccc(S(=O)(=O)N3CCOCC3)c2)c(O)c1	513 nM
CC(C)OP(=O)(c1ccc(N(C)C)cc1)C(O)c1ccccc1 (configuration not stated)	4320 nM
COc1ccc(-n2nc(C(=O)NCC(=O)NCCC3=CCCCC3)c3ccccc3c2=O)c(OC)c1	232 nM
COc1cccc(CN(C(=O)c2cc3ccccc3oc2=O)C2CC2)c1	> 15000 nM (inactive)
Cc1ccc(-n2nc(C)c3c(C)cc(=O)[nH]c32)cc1	2080 nM
C/C(=N\NC(=O)c1cc(C2CC2)nc2ccccc12)c1ccc(O)cc1O	2120 nM
CNC(=O)Nc1cc(C(F)(F)F)cc(C(F)(F)F)c1	742 nM
CN1CCN(C(c2ccc(C(F)(F)F)cc2)c2ccc3cccnc3c2O)CC1 (configuration not stated)	883 nM
O=C(Nc1ccccc1Cl)c1ccc([N+](=O)[O-])o1	693 nM
CC12CCC(C(=O)N(NC(=O)c3ccccc3O)C1=O)C2(C)C (configuration not stated)	13900 nM
CCN=c1scc(C)n1/N=C/c1ccc(O)c(O)c1O	> 15000 nM (inactive)
CC(C)NC(=S)N/N=C/c1ccc(C(C)(C)C)cc1	> 16000 nM (inactive)
O=C(Nc1nnc(SCc2ccc(F)cc2)s1)c1ccccn1	487 nM
O=[N+]([O-])c1cccc(C=Nc2cccc3ccccc23)c1O	12200 nM
CN1c2ccccc2N(C)C1(C)c1ccccc1	> 15000 nM (inactive)
CC(=O)N1CCC(=NNC(=O)c2cc3ccccc3cc2O)CC1	11900 nM
CC(=O)Nc1ccc(NC(=O)CSc2ccc3nnc(CCNS(=O)(=O)c4ccc(C)cc4)n3n2)cc1	> 16000 nM (inactive)
